# From patent US11370769B2, “TRPC5 inhibitors and methods of using same” (BOARD OF REGENTS OF THE UNIVERSITY OF NEBRASKA, priority 2017, dated 2022)
# Target: T1, TRPC6 (Homo sapiens, UniProt Q9Y210)
# T1 construct: expressed in transfected cells; host or cells: HEK293
# T1 sequence (Q9Y210 1-931): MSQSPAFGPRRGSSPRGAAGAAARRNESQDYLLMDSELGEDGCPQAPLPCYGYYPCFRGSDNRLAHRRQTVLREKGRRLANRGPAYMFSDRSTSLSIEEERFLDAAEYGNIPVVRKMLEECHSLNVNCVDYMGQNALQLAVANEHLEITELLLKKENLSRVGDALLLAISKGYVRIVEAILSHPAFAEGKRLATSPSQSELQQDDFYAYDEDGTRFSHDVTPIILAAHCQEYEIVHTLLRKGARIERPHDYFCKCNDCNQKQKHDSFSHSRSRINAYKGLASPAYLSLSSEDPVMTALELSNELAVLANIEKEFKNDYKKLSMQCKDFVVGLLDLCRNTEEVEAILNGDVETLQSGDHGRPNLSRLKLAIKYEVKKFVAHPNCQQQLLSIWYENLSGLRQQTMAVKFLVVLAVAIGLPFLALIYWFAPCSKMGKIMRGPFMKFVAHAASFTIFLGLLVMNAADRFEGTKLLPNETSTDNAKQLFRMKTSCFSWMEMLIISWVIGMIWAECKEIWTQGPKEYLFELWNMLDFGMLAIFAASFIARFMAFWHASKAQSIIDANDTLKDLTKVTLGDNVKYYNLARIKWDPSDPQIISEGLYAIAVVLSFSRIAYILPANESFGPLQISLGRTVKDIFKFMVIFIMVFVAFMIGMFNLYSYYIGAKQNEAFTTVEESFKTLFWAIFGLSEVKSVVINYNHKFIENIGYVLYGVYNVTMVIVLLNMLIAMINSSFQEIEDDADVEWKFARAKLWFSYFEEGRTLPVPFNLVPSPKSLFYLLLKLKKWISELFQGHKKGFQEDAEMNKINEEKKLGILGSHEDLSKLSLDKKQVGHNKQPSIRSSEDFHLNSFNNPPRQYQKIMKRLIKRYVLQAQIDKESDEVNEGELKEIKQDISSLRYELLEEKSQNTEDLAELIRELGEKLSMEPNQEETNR
# Test: HEK293 whole-cell patch clamp recording, TRPC6 inhibition assay
# Type: cell-based
# Conditions: 30 μM, HEK cells expressing TRPC6, OAG 30 μM
# Description: TRPC4, TRPC5, and TRPC6 inhibition assay: HEK293 whole-cell recordings Whole-cell patch clamp recording was performed 16 h after transfection. The bath solution contained (in mM): 140 NaCl, 5 KCl, 10 HEPES, 2 MgCl2, 2 CaCl2, 10 glucose with pH7.4 adjusted with NaOH. The intracellular solution contained (in mM): 140 KCl, 5 EGTA, 10 HEPES, 2 MgCl2 with pH7.4 adjusted with KOH. The patch pipettes were made using a two-step-protocol (P-97, Sutter Instrument). The pipette resistance was maintained between 4 to 8 MΩ. Once the whole-cell configuration was achieved, cells were clamped at a holding potential of −60 mV, and given a 50 ms ramp stimulation from −100 mV to +100 mV in every 5 s. All currents were filtered at 2 KHz (Axopatch 200B amplifier, Axon Instruments, Union City, Calif.) and digitized at 10 KHz for whole-cell recordings using Axon pCLAMP 10.4. Data were then analyzed using Clampfit 10.4 (Molecular Devices).
# HEK293 cell culture and transfection: Transfection of HEK293 cells was carried out using Plus reagent (Invitrogen) and Lipofectamine (Invitrogen) according to standard protocols. For heterologous expression of TRP channels in HEK293 cells, 1 μg of TRPC5-GFP, TRPC6-GFP or TRPC4-GFP plasmids were used to transfect HEK293 cells in a 3.5 cm petri dish where cells were allowed to grow to 80% confluence. Electrophysiology was carried out after 16 h incubation.
structure (smiles),measurement,value
c1ccc(Cn2c(NCc3ccco3)nc3ccccc32)cc1 [AC1903],block of OAG-induced TRPC6 current,failed to block
